Test results published in ChEMBL document CHEMBL3045822, “Growth retarding activity of lichen substances against the polyphagous herbivorous insect Spodoptera littoralis” (1994).
Calls of active or inactive are those of the source. The rule behind the calls is not given here.

Tests used:
[1] = tested on: Spodoptera littoralis; test: Growth retarding activity against neonate larval stage of Spodoptera littoralis fed with diet containing compound measured per gm of dry weight after 6 days by chronic feeding bioassay; format: functional; conditions: 144 h, read-out: ED50
[2] = tested on: Spodoptera littoralis; test: Toxicity against neonate larval stage of Spodoptera littoralis fed with diet containing compound assessed as reduction in larval survival measured per gm dry weight after 6 days by chronic feeding assay; format: functional; conditions: 144 h, read-out: ED50
[3] = tested on: Spodoptera littoralis; test: Toxicity against neonate larval stage of Spodoptera littoralis fed with diet containing compound assessed as reduction in larval survival at 15 to 110 umol/gm dry weight after 6 days by chronic feeding assay; format: functional, organism-based
[4] = tested on: Spodoptera littoralis; test: Growth retarding activity against neonate larval stage of Spodoptera littoralis fed with diet containing compound assessed as larval weight at 70 umol/gm dry weight after 6 days by chronic feeding bioassay (reference value: 100%); format: functional
[5] = tested on: Spodoptera littoralis; test: Growth retarding activity against neonate larval stage of Spodoptera littoralis fed with diet containing compound assessed as larval weight after 6 days by chronic feeding bioassay (reference value: 100%); format: functional
[6] = tested on: Spodoptera littoralis; test: Induction of imago developmental aberrations with imperfect wings in Spodoptera littoralis fed with diet containing compound at 110 umol/gm dry weight treated for 6 days measured after transferring onto control diet by chronic feeding bioassay; format: functional
[7] = tested on: Spodoptera littoralis; test: Change in pupal weight of Spodoptera littoralis fed with diet containing compound at 110 umol/gm dry weight treated for 6 days measured after transferring onto control diet by chronic feeding bioassay (reference value: 0.40 +/-0.05 gms); format: functional
[8] = tested on: Spodoptera littoralis; test: Prolongation of duration of larval period in Spodoptera littoralis fed with diet containing compound at 110 umol/gm dry weight treated for 6 days measured after transferring onto control diet by chronic feeding bioassay (reference value: 17 to 20 days); format: functional
[9] = tested on: Spodoptera littoralis; test: Growth retarding activity against neonate larval stage of Spodoptera littoralis fed with diet containing compound assessed as larval weight at 94 umol/gm dry weight after 6 days by chronic feeding bioassay (reference value: 100%); format: functional
[10] = tested on: Spodoptera littoralis; test: Growth retarding activity against neonate larval stage of Spodoptera littoralis fed with diet containing compound assessed as larval weight at 41 umol/gm dry weight after 6 days by chronic feeding bioassay (reference value: 100%); format: functional
[11] = tested on: Spodoptera littoralis; test: Reduction in number of imagoes emerging from pupae in Spodoptera littoralis fed with diet containing compound at 110 umol/gm dry weight after 6 days by chronic feeding bioassay (reference value: 90%); format: functional; set-up: scale not given: the % may be the effect or the level left
[12] = tested on: Spodoptera littoralis; test: Growth retarding activity against neonate larval stage of Spodoptera littoralis fed with diet containing compound assessed as larval weight at 104 umol/gm dry weight after 6 days by chronic feeding bioassay (reference value: 100%); format: functional

Molecule `CC(=O)C1=C(O)C=C2Oc3c(C(C)=O)c(O)c(C)c(O)c3[C@@]2(C)C1=O` [(+)-USNIC ACID] has an EC50 [1] of 4.5 µmol/g and an EC50 [2] of 90.8 µmol/g.

In the case of `CC(=O)C1=C(O)C=C2Oc3c(C(C)=O)c(O)c(C)c(O)c3[C@]2(C)C1=O` [(-)-USNIC ACID], the EC50 [1] is reported as 1.2 µmol/g and the EC50 [2] is reported as 8.6 µmol/g.

`COC(=O)c1c(C)cc(OC(=O)c2c(C)cc(O)c(C=O)c2O)c(C)c1O` [ATRANORIN] was tested, and the Activity [3] was “inactive”, the Activity [4] was 52% and the EC50 [1] was over 110 µmol/g. The Activity [5] was 51%.

`O=C1O/C(=C2/C(=O)Oc3ccccc32)C(O)=C1c1ccccc1` [CALYCIN] was tested, and the Activity [6] was 44%, the Activity [7] was 0.33 g and the Activity [3] was “inactive”. The EC50 [1] was 37.6 µmol/g and the Time [8] was 21 days.

With `COc1cc(C)c(C(=O)Oc2cc(C)c(C(=O)O)c(O)c2)c(O)c1` [EVERNIC ACID] the Activity [3] was “inactive” and the EC50 [1] was over 110 µmol/g.

In the case of `Cc1cc(O)c(C=O)c2c1C(=O)Oc1c(COC(=O)/C=C/C(=O)O)c(O)c(C(=O)O)c(C)c1O2` [FUMARPROTOCETRARIC ACID], the Activity [7] is reported as 0.45 g, the Activity [3] is reported as “inactive” and the EC50 [1] is reported as 30.5 µmol/g. For the same molecule, the Time [8] was 24 days.

With `Cc1cc(O)c(C=O)c2c1C(=O)Oc1c(C)c(O)c3c(c1O2)C(O)OC3=O` (stereo not drawn) [NORSTICTIC ACID] the Activity [9] was 18%, the Activity [7] was 0.33 g and the Activity [3] was “inactive”. The EC50 [1] was 32 µmol/g, the Activity [5] was 18% and the Time [8] was 17 days.

In the case of `CCCCCC(=O)Cc1cc(O)c(O)c2c1C(=O)Oc1cc(O)c(C(=O)O)c(CCCCC)c1O2` [OXYPHYSODIC ACID], the Activity [6] is reported as 50%, the Activity [7] is reported as 0.33 g and the Activity [10] is reported as 15%. The Activity [3] was “inactive”, the EC50 [1] was 11.2 µmol/g and the Time [8] was 19 days.

For `CCCCCC(=O)Cc1cc(O)cc2c1C(=O)Oc1cc(O)c(C(=O)O)c(CCCCC)c1O2` [PHYSODIC ACID], the Activity [3] was “inactive” and the EC50 [1] was over 110 µmol/g.

For `COc1cc(C(=O)O)c2c(c1C)OC(=O)c1c(C)cc(O)c(C=O)c1O2` [PSOROMIC ACID], the Activity [7] was 0.41 g, the Activity [3] was “inactive” and the EC50 [1] was 46.2 µmol/g. It also gave a Time [8] of 20 days.

In the case of `O=C1OC2=C(c3ccccc3)C(=O)OC2=C1c1ccccc1` [PULVINIC DILACTONE], the Activity [3] is reported as “inactive” and the EC50 [1] is reported as over 110 µmol/g.

In the case of `COC(=O)C(Cc1ccccc1)NC(=O)/C(=C1/OC(=O)C(c2ccccc2)=C1O)c1ccccc1` (stereo not drawn) [RHIZOCARPIC ACID], the Activity [7] is reported as 0.28 g, the Activity [3] is reported as “inactive” and the Activity [11] is reported as 25%. The EC50 [1] was 70.8 µmol/g and the Time [8] was 19 days.

For `Cc1cc(O)c(C=O)c2c1C(=O)Oc1c(CO)c(O)c3c(c1O2)C(O)OC3=O` (stereo not drawn) [SLAZINIC ACID], the Activity [7] was 0.4 g, the Activity [3] was “inactive” and the EC50 [1] was 29.2 µmol/g. The Time [8] was 24 days.

In the case of `COc1cc(C)c2c(c1C=O)Oc1c(c(C)c(O)c3c1C(O)OC3=O)OC2=O` (stereo not drawn) [STICTIC ACID], the Activity [7] is reported as 0.41 g, the Activity [3] is reported as “inactive” and the Activity [12] is reported as 27%. For the same molecule, the EC50 [1] was 57.5 µmol/g and the Time [8] was 20 days.

For `COC(=O)/C(=C1/OC(=O)C(c2ccccc2)=C1O)c1ccccc1` [VULPINIC ACID], the Activity [6] was 14%, the Activity [7] was 0.32 g and the Activity [3] was “inactive”. For the same molecule, the EC50 [1] was 17.2 µmol/g and the Time [8] was 23 days.
